Some test systems named below: 786-0 renal; COLO 205 colon; HCT-116 colon; HL-60(TB) leukemia; HOP-62 NSCLC; K-562 leukemia; LOX IMVI melanoma; OVCAR-3 ovarian; OVCAR-5 ovarian.
Holding throughout (assay): NCI anticancer screen, dose series, 48 h

Results on 15 compounds are retold here after PubChem BioAssay (NCI).

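Exposure lasted 48 hours, with cells grown in 96-well plates and compounds tested at five concentrations. Here, GI50 denotes the concentration required for 50% inhibition of growth. The concentration for full growth arrest is given as TGI.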

Take `O=C1NC(=O)c2c1n(Cc1ccccc1)c(=O)n2Cc1ccccc1`: the TGI with 786-0 renal, in the assay with COLO 205 colon, in the assay on HCT-116 colon, in the assay with HL-60(TB) leukemia, in the assay on HOP-62 NSCLC and in the assay with K-562 leukemia was more than 100 µM throughout. Moreover, the TGI with LOX IMVI melanoma, in the assay with OVCAR-3 ovarian and in the assay with OVCAR-5 ovarian was more than 100 µM each time.
For the compound `O=[N+]([O-])c1ccccc1C1SCc2nc3ccccc3n21` (stereo unspecified), the TGI in the assay with 786-0 renal, in the assay on HL-60(TB) leukemia, with HOP-62 NSCLC, in the assay on K-562 leukemia and in the assay on LOX IMVI melanoma was more than 100 µM in each case.
On to `COC(=O)C1C(=O)O[C@@H](c2ccc3c(c2)OCO3)C1C(=O)OC` (mixture of isomers), for which the TGI with 786-0 renal, in the assay with COLO 205 colon, with HCT-116 colon, in the assay with HL-60(TB) leukemia, in the assay on HOP-62 NSCLC and in the assay with K-562 leukemia was more than 100 µM in each case. Moreover, the TGI in the assay on LOX IMVI melanoma, in the assay with OVCAR-3 ovarian and with OVCAR-5 ovarian was more than 100 µM in each case.
In the case of `COc1nc2c(c(O)c(C)c(=O)n2OC2OCC(OC(C)=O)C(OC(C)=O)C2OC(C)=O)c(=O)n1C` (stereo unspecified), the TGI with 786-0 renal, with COLO 205 colon, with HCT-116 colon, in the assay with HOP-62 NSCLC, in the assay on K-562 leukemia and in the assay on LOX IMVI melanoma was more than 100 µM each time. This compound showed a TGI in the assay with OVCAR-5 ovarian of more than 100 µM.
Regarding `CCN1C(=S)N(CC)C2C1NC(=S)N2/N=C/C=C/c1ccccc1OC` (stereo unspecified), the GI50 with 786-0 renal is 0.67 µM; with COLO 205 colon, 0.312 µM; in the assay with HCT-116 colon, 0.326 µM; in the assay on HL-60(TB) leukemia, 0.229 µM; in the assay on HOP-62 NSCLC, 0.453 µM; in the assay on K-562 leukemia it was 0.129 µM. Besides, the GI50 in the assay on LOX IMVI melanoma was 0.488 µM; in the assay on OVCAR-3 ovarian it was 0.174 µM; in the assay on OVCAR-5 ovarian, 0.442 µM. The TGI in the assay on 786-0 renal is more than 52.3 µM; in the assay on COLO 205 colon, 1.27 µM; in the assay with HCT-116 colon it was more than 36.3 µM; in the assay on HL-60(TB) leukemia, 0.597 µM; with HOP-62 NSCLC, more than 100 µM; in the assay on K-562 leukemia, more than 72.1 µM. The TGI with LOX IMVI melanoma was found to be 12.7 µM; in the assay with OVCAR-3 ovarian it was 0.64 µM; in the assay with OVCAR-5 ovarian, 35.6 µM.
For the compound `NNC(=O)C(=O)N/N=C1/CCCC1C(=O)CCC(=O)Nc1ccc(Cl)cc1` (stereo unspecified), the TGI in the assay with 786-0 renal, in the assay with COLO 205 colon, in the assay on HCT-116 colon, in the assay on HL-60(TB) leukemia, in the assay with HOP-62 NSCLC and in the assay on K-562 leukemia was more than 100 µM each time. Besides, the TGI in the assay with OVCAR-3 ovarian and in the assay on OVCAR-5 ovarian was more than 100 µM each time.
As for `O=c1cc(O)cc2n1CCC2`, the TGI with 786-0 renal, with COLO 205 colon, in the assay on HCT-116 colon, with HOP-62 NSCLC, with K-562 leukemia and in the assay on LOX IMVI melanoma was more than 100 µM throughout. The TGI in the assay with OVCAR-3 ovarian and with OVCAR-5 ovarian was more than 100 µM in each case.
In the case of `O=C(NC12CC3CCC1CC(C3)C2)[C@@H]1CCCN1C(=O)OCc1ccccc1` (stereo partly specified), the TGI in the assay on 786-0 renal is more than 100 µM; in the assay with COLO 205 colon it was more than 100 µM; with HCT-116 colon, more than 100 µM; with HL-60(TB) leukemia it was 73.3 µM; in the assay on HOP-62 NSCLC, more than 100 µM; in the assay with K-562 leukemia it was more than 100 µM. For the same compound, the TGI in the assay on LOX IMVI melanoma, in the assay on OVCAR-3 ovarian and in the assay on OVCAR-5 ovarian was more than 100 µM each time.
On to `CC1=N/C(=C\c2ccc(/C=C3/N=C(C)OC3=O)cc2)C(=O)O1`, for which the TGI in the assay on 786-0 renal, with COLO 205 colon, in the assay with HCT-116 colon, in the assay on HOP-62 NSCLC, in the assay with K-562 leukemia and in the assay with LOX IMVI melanoma was more than 100 µM each time. In the assay on OVCAR-3 ovarian, this compound registered a TGI of more than 100 µM.
As for `O=C(NC1C(=O)NNC1c1cccc([N+](=O)[O-])c1)c1ccccc1` (stereo unspecified), the TGI in the assay on 786-0 renal, in the assay with COLO 205 colon, in the assay on HCT-116 colon, in the assay with HL-60(TB) leukemia, in the assay on HOP-62 NSCLC and in the assay with LOX IMVI melanoma was more than 100 µM each time. The TGI in the assay with OVCAR-3 ovarian and in the assay on OVCAR-5 ovarian was more than 100 µM each time.
For the compound `COC(=O)CCC(NC(=S)N/N=C/c1cccs1)C(=O)OC` (stereo unspecified), the TGI in the assay on 786-0 renal, with COLO 205 colon, in the assay with HCT-116 colon, with HL-60(TB) leukemia, in the assay on HOP-62 NSCLC and in the assay with K-562 leukemia was more than 100 µM in each case. The TGI in the assay on LOX IMVI melanoma, in the assay with OVCAR-3 ovarian and in the assay with OVCAR-5 ovarian was more than 100 µM each time.
As for `COc1cc(Nc2cnc3ccc(C(F)(F)F)cc3n2)cc(OC)c1OC`, the TGI was more than 100 µM in the assay on 786-0 renal; more than 100 µM in the assay on COLO 205 colon; more than 100 µM in the assay with HCT-116 colon; more than 100 µM with HL-60(TB) leukemia; more than 100 µM in the assay on HOP-62 NSCLC; 23.2 µM in the assay with LOX IMVI melanoma. Besides, the TGI in the assay with OVCAR-3 ovarian and with OVCAR-5 ovarian was more than 100 µM in each case.
Take `O=c1/c(=C/c2ccccc2[N+](=O)[O-])sc2nnc(-c3cccnc3)n12`: the TGI with 786-0 renal, in the assay with HCT-116 colon, with HL-60(TB) leukemia, in the assay on HOP-62 NSCLC, in the assay on K-562 leukemia and with LOX IMVI melanoma was more than 100 µM throughout. For the same compound, the TGI in the assay with OVCAR-3 ovarian and with OVCAR-5 ovarian was more than 100 µM in each case.
Regarding `CCOC(=O)c1nc(C)oc1C(F)(F)F`, the TGI in the assay with 786-0 renal, with COLO 205 colon, in the assay with HCT-116 colon, with HL-60(TB) leukemia, with HOP-62 NSCLC and in the assay with K-562 leukemia was more than 100 µM throughout. For the same compound, the TGI in the assay on LOX IMVI melanoma, with OVCAR-3 ovarian and in the assay with OVCAR-5 ovarian was more than 100 µM in each case.
For the compound `CCc1ccccc1NC(=O)c1cccc([N+](=O)[O-])c1O`, the TGI in the assay with 786-0 renal is more than 100 µM; in the assay on COLO 205 colon it was 31.4 µM; in the assay with HCT-116 colon, 87.5 µM; in the assay with HL-60(TB) leukemia, more than 100 µM; in the assay on HOP-62 NSCLC, 58 µM; in the assay with K-562 leukemia, more than 100 µM. Besides, the TGI was 55.6 µM in the assay with LOX IMVI melanoma, more than 100 µM in the assay with OVCAR-3 ovarian and 65.1 µM in the assay on OVCAR-5 ovarian.
